Test results taken from ChEMBL document CHEMBL1136905, “Substituted isoxazole analogs of farnesoid X receptor (FXR) agonist GW4064” (Bioorg Med Chem Lett, 2009).

What was measured:
Bile acid receptor [1] = target: T1, Bile acid receptor (Homo sapiens, UniProt Q96RI1); test: Agonist activity at human FXR assessed as SRC1 coactivator peptide recruitment by cell free FRET assay; type: functional
T1 sequence (Q96RI1 whole entry): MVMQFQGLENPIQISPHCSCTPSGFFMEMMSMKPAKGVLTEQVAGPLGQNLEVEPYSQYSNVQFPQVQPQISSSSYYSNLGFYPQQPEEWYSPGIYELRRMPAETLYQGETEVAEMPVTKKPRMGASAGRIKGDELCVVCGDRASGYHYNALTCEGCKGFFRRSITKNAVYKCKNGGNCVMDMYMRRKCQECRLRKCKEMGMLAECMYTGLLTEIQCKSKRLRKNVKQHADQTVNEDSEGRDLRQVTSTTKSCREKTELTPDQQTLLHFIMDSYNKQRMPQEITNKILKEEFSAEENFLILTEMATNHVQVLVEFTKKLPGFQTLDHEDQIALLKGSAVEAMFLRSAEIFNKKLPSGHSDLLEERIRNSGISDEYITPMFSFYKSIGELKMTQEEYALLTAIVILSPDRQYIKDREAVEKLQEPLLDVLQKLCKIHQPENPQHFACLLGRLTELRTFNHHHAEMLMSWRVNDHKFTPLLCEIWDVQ

Bile acid receptor [2] = target: T1, Bile acid receptor; test: Agonist activity at human FXR assessed as SRC1 peptide interaction with receptor ligand binding domain by FRET assay
[3] = target: T2, Bile acid receptor (Homo sapiens) (UniProt Q96RI1); test: Agonist activity at human FXR assessed as SRC1 peptide interaction with receptor ligand binding domain by FRET assay relative to GW-4064
T2 sequence (whole entry): T1 sequence (Q96RI1 whole entry)

[4] = target: T2, Bile acid receptor (Homo sapiens); test: Agonist activity at human FXR transfected in african green monkey CV1 cells by luciferase reporter gene transient transfection assay relative to GW-4064; type: functional, cell-based; conditions: CV-1
Bile acid receptor [5] = target: T1, Bile acid receptor; test: Agonist activity at human FXR transfected in african green monkey CV1 cells by luciferase reporter gene transient transfection assay; type: functional, cell-based, CV-1
[6] = Oral bioavailability in rat; type: ADME, organism-based; conditions: in vivo
[7] = Total clearance in iv dosed rat; type: ADME, organism-based; conditions: in vivo
[8] = Terminal half life in iv dosed rat; type: ADME, organism-based; conditions: in vivo, read-out: beta t1/2
[9] = Volume of distribution at steady state in iv dosed rat; type: ADME, organism-based; conditions: in vivo, read-out: Vdss

| EC50 (Bile acid receptor [1]) [µM] | EC50 (Bile acid receptor [2]) [µM] | %max [3] [%] | %max [4] [%] | EC50 (Bile acid receptor [5]) [µM] | bioavailability [6] [%] | clearance [7] [mL/min/kg] | half-life [8] [h] | Vd [9] [L/kg] | Structure (SMILES) |
| --- | --- | --- | --- | --- | --- | --- | --- | --- | --- |
| > 10 | 1.1 | 40 | – | – | – | – | – | – | CC(C)c1onc(COc2cc(Cl)cc(Cl)c2)c1COc1ccc(/C=C/c2cccc(C(=O)O)c2)c(Cl)c1 |
| – | 0.93 | 65 | 27 | 2.3 | – | – | – | – | CC(C)c1onc(COc2ccc3ccccc3c2)c1COc1ccc(/C=C/c2cccc(C(=O)O)c2)c(Cl)c1 |
| – | 0.93 | 59 | 45 | 2.1 | – | – | – | – | CC(C)c1onc(CSc2nnnn2C)c1COc1ccc(/C=C/c2cccc(C(=O)O)c2)c(Cl)c1 |
| – | 0.62 | 72 | 39 | 0.69 | – | – | – | – | CC(C)c1onc(COc2ccc(Cl)cc2Cl)c1COc1ccc(/C=C/c2cccc(C(=O)O)c2)c(Cl)c1 |
| – | 0.56 | 81 | 75 | 0.24 | – | – | – | – | O=C(O)c1cccc(/C=C/c2ccc(OCc3c(-c4c(Cl)cccc4Cl)noc3C3CCCC3)cc2Cl)c1 |
| > 10 | 2 | 38 | – | – | – | – | – | – | CC(C)c1onc([C@H]2C[C@@H]2c2c(Cl)cccc2Cl)c1COc1ccc(/C=C/c2cccc(C(=O)O)c2)c(Cl)c1 (relative stereo) |
| – | 0.051 | 110 | 86 | 0.1 | – | – | – | – | CC(C)c1onc(CSc2c(Cl)cccc2Cl)c1COc1ccc(/C=C/c2cccc(C(=O)O)c2)c(Cl)c1 |
| – | 0.017 | 110 | 118 | 0.056 | – | – | – | – | Cc1cccc(C)c1OCc1noc(C(C)C)c1COc1ccc(/C=C/c2cccc(C(=O)O)c2)c(Cl)c1 |
| – | 0.48 | 82 | 38 | 0.63 | – | – | – | – | CC(C)c1onc(COc2cccc(Cl)c2Cl)c1COc1ccc(/C=C/c2cccc(C(=O)O)c2)c(Cl)c1 |
| – | 0.32 | 96 | 110 | 0.093 | – | – | – | – | CC(C)c1onc(CCc2ccccc2)c1COc1ccc(/C=C/c2cccc(C(=O)O)c2)c(Cl)c1 |
| – | 0.55 | 67 | 120 | 0.23 | – | – | – | – | CC(C)c1onc(Cc2ccccc2)c1COc1ccc(/C=C/c2cccc(C(=O)O)c2)c(Cl)c1 |
| – | 7.8 | 22 | – | > 10 | – | – | – | – | CC(C)c1onc(CO)c1COc1ccc(/C=C/c2cccc(C(=O)O)c2)c(Cl)c1 |
| – | 0.4 | 68 | 31 | 0.42 | – | – | – | – | CC(C)c1onc(CNc2c(Cl)cncc2Cl)c1COc1ccc(/C=C/c2cccc(C(=O)O)c2)c(Cl)c1 |
| – | 0.072 | 104 | 70 | 0.14 | 2.6 | 16 | 2.33 | 2.1 | CC(C)c1onc(CNc2c(Cl)cccc2Cl)c1COc1ccc(/C=C/c2cccc(C(=O)O)c2)c(Cl)c1 |
| > 10 | 1.1 | 57 | – | – | – | – | – | – | CC(C)c1onc(COc2ccc(Cl)c(Cl)c2)c1COc1ccc(/C=C/c2cccc(C(=O)O)c2)c(Cl)c1 |
| – | – | 100 | 100 | – | – | 36 | – | – | CC(C)c1onc(-c2c(Cl)cccc2Cl)c1COc1ccc(/C=C/c2cccc(C(=O)O)c2)c(Cl)c1 |
| – | 0.13 | 99 | 66 | 0.11 | – | – | – | – | Cc1cc(Cl)cc(C)c1OCc1noc(C(C)C)c1COc1ccc(/C=C/c2cccc(C(=O)O)c2)c(Cl)c1 |
| – | 4.4 | 44 | 68 | 1.2 | – | – | – | – | CC(C)c1onc(CCCc2ccccc2)c1COc1ccc(/C=C/c2cccc(C(=O)O)c2)c(Cl)c1 |

| EC50 (Bile acid receptor [1]) [µM] | EC50 (Bile acid receptor [2]) [µM] | %max [3] [%] | %max [4] [%] | EC50 (Bile acid receptor [5]) [µM] | bioavailability [6] [%] | clearance [7] [mL/min/kg] | half-life [8] [h] | Vd [9] [L/kg] | Structure (SMILES) |
| --- | --- | --- | --- | --- | --- | --- | --- | --- | --- |
| 0.28 | 2.2 | 82 | 71 | – | – | – | – | – | CCC(CC)c1onc(-c2c(Cl)cccc2Cl)c1COc1ccc(/C=C/c2cccc(C(=O)O)c2)c(Cl)c1 |
| – | 0.15 | 105 | 104 | 0.048 | – | – | – | – | CC(C)c1onc(CCc2c(Cl)cccc2Cl)c1COc1ccc(/C=C/c2cccc(C(=O)O)c2)c(Cl)c1 |
| – | 0.048 | 106 | 111 | 0.15 | – | – | – | – | Cc1cccc(Cl)c1OCc1noc(C(C)C)c1COc1ccc(/C=C/c2cccc(C(=O)O)c2)c(Cl)c1 |
| – | 0.41 | 67 | 100 | 0.14 | – | – | – | – | O=C(O)c1cccc(/C=C/c2ccc(OCc3c(-c4c(Cl)cccc4Cl)noc3C3CCC3)cc2Cl)c1 |
| 0.082 | 0.46 | 82 | 71 | – | – | – | – | – | CC(C)c1onc(COc2ccccc2Cl)c1COc1ccc(/C=C/c2cccc(C(=O)O)c2)c(Cl)c1 |
| – | 1 | 83 | 37 | 0.9 | – | – | – | – | CC(C)c1onc(COc2cc(Cl)ccc2Cl)c1COc1ccc(/C=C/c2cccc(C(=O)O)c2)c(Cl)c1 |
| 2 | 0.31 | 51 | 42 | – | – | – | – | – | CC(C)c1onc(COc2cccc(Cl)c2)c1COc1ccc(/C=C/c2cccc(C(=O)O)c2)c(Cl)c1 |
| – | 0.66 | 77 | 132 | 0.6 | – | – | – | – | CC(C)c1onc(COC(C)(C)C)c1COc1ccc(/C=C/c2cccc(C(=O)O)c2)c(Cl)c1 |
| – | 2.2 | 100 | 112 | 0.72 | – | – | – | – | CC(C)c1onc(COc2c(F)cccc2F)c1COc1ccc(/C=C/c2cccc(C(=O)O)c2)c(Cl)c1 |
| – | 0.058 | 101 | 68 | 0.2 | – | – | – | – | CC(C)c1onc(COc2c(Cl)cc(Cl)cc2Cl)c1COc1ccc(/C=C/c2cccc(C(=O)O)c2)c(Cl)c1 |
| – | 0.11 | 106 | 95 | 0.3 | – | – | – | – | CC(C)c1onc(COc2c(F)cc(F)cc2F)c1COc1ccc(/C=C/c2cccc(C(=O)O)c2)c(Cl)c1 |
| – | 0.074 | 103 | 121 | 0.29 | – | – | – | – | CC(C)c1onc(COc2c(F)cccc2Cl)c1COc1ccc(/C=C/c2cccc(C(=O)O)c2)c(Cl)c1 |
| – | 0.96 | 79 | 34 | 1.2 | – | – | – | – | CC(C)c1onc(COc2cccc3ccccc23)c1COc1ccc(/C=C/c2cccc(C(=O)O)c2)c(Cl)c1 |
| – | 0.45 | 58 | 53 | 1.3 | – | – | – | – | CC(C)c1onc(COc2ccc(Cl)cc2)c1COc1ccc(/C=C/c2cccc(C(=O)O)c2)c(Cl)c1 |
| – | 0.105 | 100 | 105 | 0.093 | – | – | – | – | CC[C@@H](C)c1onc(-c2c(Cl)cccc2Cl)c1COc1ccc(/C=C/c2cccc(C(=O)O)c2)c(Cl)c1 |
| – | 0.15 | 100 | 68 | 0.39 | – | – | – | – | CC(C)c1onc(CS(=O)(=O)c2c(Cl)cccc2Cl)c1COc1ccc(/C=C/c2cccc(C(=O)O)c2)c(Cl)c1 |
| – | 1.1 | 55 | 27 | 1.2 | – | – | – | – | CC(C)c1onc(COc2ccccc2)c1COc1ccc(/C=C/c2cccc(C(=O)O)c2)c(Cl)c1 |
| – | 0.19 | 96 | 99 | 0.29 | – | – | – | – | CC[C@H](C)c1onc(-c2c(Cl)cccc2Cl)c1COc1ccc(/C=C/c2cccc(C(=O)O)c2)c(Cl)c1 |
